Counter-ions that a name gives are not always drawn.

What is called EC50 is the concentration at which the effect is half-maximal.

Assay [1] relates to HCVpp GT-1b. Description: microbe, parasite or virus in culture. The assay is classed as cell-based, Hepatitis C virus (GT1b Con1 strain). The conditions noted are these: Hepatitis C virus, GT1B, 72 h, read-out: HCVpp GT-1b (EC50, μM).
Assay [2] deals with VSVpp. Description: microbe, parasite or virus in culture. The conditions noted are these: Vesicular stomatitis virus, 72 h, read-out: VSVpp (EC50, μM). The format is cell-based.

Take `Cn1cc(CNc2nc(Nc3cc(Cl)cc(Cl)c3)n[nH]2)cn1` [Compound 11, N3-(3,5-dichlorophenyl)-N5-((1-methyl-1H-pyrazol-4-yl)methyl)-1H-1,2,4-triazole-3,5-diamine]: the EC50 in assay [1] came out at 23.9 µM; in assay [2] it was 25.7 µM.

For `Clc1cc(Cl)cc(Nc2n[nH]c(NCc3ccccc3)n2)c1` [Compound 9, N5-benzyl-N3-(3,5-dichlorophenyl)-1H-1,2,4-triazole-3,5-diamine], the EC50 in assay [1] was 1.72 µM; in assay [2], 22.8 µM.

Regarding `Cc1ccc(CNc2nc(Nc3cc(Cl)cc(Cl)c3)n[nH]2)o1` [Compound 3, N3-(3,5-dichlorophenyl)-N5-((5-methylfuran-2-yl)methyl)-1H-1,2,4-triazole-3,5-diamine], the EC50 worked out at 3.27 µM in assay [1] and 19.3 µM in assay [2].

On to `CC(C)S(=O)(=O)c1ccc(-c2c(Cl)cc(Nc3n[nH]c(NCc4ccc(C(=O)OC(C)(C)C)cc4)n3)cc2C(F)(F)F)cc1` [Compound 24, tert-butyl 4-((3-(2-chloro-4′-(isopropylsulfonyl)-6-(trifluoromethyl)biphenyl-4-ylamino)-1H-1,2,4-triazol-5-ylamino)methyl)benzoate], for which the 50% effective concentration (EC50) in assay [1] turned out to be 0.014 µM; in assay [2], 6.2 µM.

As to `CS(=O)(=O)N1CCC(Nc2nc(Nc3cc(Cl)cc(Cl)c3)n[nH]2)CC1` [Compound 27, N*3*-(3,5-Dichloro-phenyl)-N*5*-(1-methanesulfonyl-piperidin-4-yl)-1H-[1,2,4]triazole-3,5-diamine], the EC50 came to 59.6 µM in assay [1] and 42.4 µM in assay [2].

For the compound `Nc1ccc(CNc2nc(Nc3cc(Cl)cc(Cl)c3)n[nH]2)cn1` [Compound 10, N5-((6-aminopyridin-3-yl)methyl)-N3-(3,5-dichlorophenyl)-1H-1,2,4-triazole-3,5-diamine], the values for the EC50 in assay [1] and in assay [2] were 58.3 µM and 100 µM, respectively.

For the compound `O=C(O)c1cccc(CNc2nc(Nc3cc(Cl)cc(Cl)c3)n[nH]2)c1` [Compound 13, 3-((3-(3,5-dichlorophenylamino)-1H-1,2,4-triazol-5-ylamino)methyl)benzoic acid; trifluoroacetic acid salt], the EC50 in assay [1] came out at 37.5 µM; in assay [2], 78.1 µM.

Turning to `O=S(=O)(c1ccc(CNc2nc(Nc3cc(Cl)cc(Cl)c3)n[nH]2)cc1)N1CCOCC1` [Compound 21, N3-(3,5-dichlorophenyl)-N5-(4-(morpholinosulfonyl)benzyl)-1H-1,2,4-triazole-3,5-diamine], the EC50 in assay [1] and in assay [2] was 10 µM each time.

For `CN(C)S(=O)(=O)c1ccc(CNc2nc(Nc3cc(Cl)cc(Cl)c3)n[nH]2)cc1` [Compound 17, 4-((3-(3,5-dichlorophenylamino)-1H-1,2,4-triazol-5-ylamino)methyl)-N,N-dimethylbenzenesulfonamide], the EC50 in assay [1] and in assay [2] was 10 µM each time.

For the compound `Clc1ccc(CNc2nc(Nc3cc(Cl)cc(Cl)c3)n[nH]2)nc1` [Compound 5, N5-((5-chloropyridin-2-yl)methyl)-N3-(3,5-dichlorophenyl)-1H-1,2,4-triazole-3,5-diamine], the EC50 is 1.57 µM in assay [1] and 33.6 µM in assay [2].

`FC(F)(F)c1ccc(CNc2nc(Nc3cc(Cl)c(Br)c(C(F)(F)F)c3)n[nH]2)cc1` [Compound 1, N3-(4-bromo-3-chloro-5-(trifluoromethyl)phenyl)-N5-(4-(trifluoromethyl)benzyl)-1H-1,2,4-triazole-3,5-diamine]: the EC50 stood at 1.35 µM in assay [1] and 13.7 µM in assay [2].

In the case of `CC(C)(C)OC(=O)Nc1ccc(CNc2nc(Nc3cc(Cl)cc(Cl)c3)n[nH]2)cn1` [Compound 6, Tert-butyl 5-((3-(3,5-dichlorophenylamino)-1H-1,2,4-triazol-5-ylamino)methyl)pyridin-2-ylcarbamate], the EC50 was found to be 7.81 µM in assay [1] and 14.5 µM in assay [2].

Regarding `O=C(O)c1ccccc1CNc1nc(Nc2cc(Cl)cc(Cl)c2)n[nH]1` [Compound 14, 2-((3-(3,5-dichlorophenylamino)-1H-1,2,4-triazol-5-ylamino)methyl)benzoic acid; trifluoroacetic acid salt], the figures for the EC50 in assay [1] and in assay [2] were 96 µM and 100 µM, respectively.

Regarding `O=C(O)c1ccc(CNc2nc(Nc3cc(Cl)cc(Cl)c3)n[nH]2)cc1` [Compound 12, 4-((3-(3,5-dichlorophenylamino)-1H-1,2,4-triazol-5-ylamino)methyl)benzoic acid; trifluoroacetic acid salt], the EC50 in assay [1] turned out to be 19.5 µM; in assay [2] it was 100 µM.

As for `FC(F)(F)c1ccc(CNc2nc(Nc3cc(Cl)cc(Cl)c3)n[nH]2)cc1Cl` [Compound 19, N5-(3-chloro-4-(trifluoromethyl)benzyl)-N3-(3,5-dichlorophenyl)-1H-1,2,4-triazole-3,5-diamine], the EC50 in assay [1] came to 4.83 µM; in assay [2], 10 µM.

Turning to `CC(C)(C)OC(=O)N1CCC(Nc2nc(Nc3cc(Cl)cc(Cl)c3)n[nH]2)CC1` [Compound 28, 4-[5-(3,5-Dichloro-phenylamino)-2H-[1,2,4]triazol-3-ylamino]-piperidine-1-carboxylic acid tert-butyl ester], the figures for the EC50 in assay [1] and in assay [2] were 6.57 µM and 11.1 µM, respectively.

As to `CC(C)(C)OC(=O)c1ccc(CNc2nc(Nc3cc(Cl)cc(Cl)c3)n[nH]2)cc1` [Compound 7, tert-butyl 4-((3-(3,5-dichlorophenylamino)-1H-1,2,4-triazol-5-ylamino)methyl)benzoate], the EC50 in assay [1] stood at 0.414 µM; in assay [2], 33.3 µM.

Turning to `CC(C)(C)OC(=O)c1ccccc1CNc1nc(Nc2cc(Cl)cc(Cl)c2)n[nH]1` [Compound 8, tert-butyl 2-((3-(3,5-dichlorophenylamino)-1H-1,2,4-triazol-5-ylamino)methyl)benzoate], the EC50 was 9.99 µM in assay [1] and 22 µM in assay [2].

In the case of `FC(F)(F)c1ccc(Cl)cc1CNc1nc(Nc2cc(Cl)cc(Cl)c2)n[nH]1` [Compound 4, N5-(5-chloro-2-(trifluoromethyl)benzyl)-N3-(3,5-dichlorophenyl)-1H-1,2,4-triazole-3,5-diamine], the values for the EC50 in assay [1] and in assay [2] were 4.66 µM and 13.2 µM, respectively.

As for `FC(F)(F)c1cccc(CNc2nc(Nc3cc(Cl)cc(Cl)c3)n[nH]2)c1` [Compound 26, N*3*-(3,5-Dichloro-phenyl)-N*5*-(3-trifluoromethyl-benzyl)-1H-[1,2,4]triazole-3,5-diamine], the EC50 turned out to be 0.709 µM in assay [1] and 30.3 µM in assay [2].

Regarding `O=S(=O)(c1ccc(CNc2nc(Nc3cc(Cl)cc(Cl)c3)n[nH]2)cc1)N1CCCC1` [Compound 20, N3-(3,5-dichlorophenyl)-N5-(4-(pyrrolidin-1-ylsulfonyl)benzyl)-1H-1,2,4-triazole-3,5-diamine], the EC50 in assay [1] and in assay [2] was 10 µM each time.

For the compound `FC(F)(F)c1ccc(CNc2nc(Nc3cc(Cl)cc(Cl)c3)n[nH]2)cc1` [Compound 25, N*3*-(3,5-Dichloro-phenyl)-N*5*-(4-trifluoromethyl-benzyl)-1H-[1,2,4]triazole-3,5-diamine], the EC50 in assay [1] turned out to be 0.046 µM; in assay [2], 29.1 µM.

`CS(=O)(=O)c1ccc(CNc2nc(Nc3cc(Cl)cc(Cl)c3)n[nH]2)cc1` [Compound 15, N3-(3,5-dichlorophenyl)-N5-(4-(methylsulfonyl)benzyl)-1H-1,2,4-triazole-3,5-diamine]: the EC50 in assay [1] and in assay [2] was 10 µM each time.

Take `N#Cc1c(Cl)cc(Nc2n[nH]c(NCc3ccc(C(F)(F)F)cc3)n2)cc1Cl` [Compound 22, 2,6-dichloro-4-(5-(4-(trifluoromethyl)benzylamino)-1H-1,2,4-triazol-3-ylamino)benzonitrile]: the EC50 in assay [1] was 0.224 µM; in assay [2], 5.3 µM.

With `Clc1cc(Cl)cc(Nc2n[nH]c(NCc3cncnc3)n2)c1` [Compound 31, N*3*-(3,5-Dichloro-phenyl)-N*5*-pyrimidin-5-ylmethyl-1H-[1,2,4]triazole-3,5-diamine], the EC50 in assay [1] was 44.3 µM; in assay [2] it was 100 µM.

As for `Clc1cc(Cl)cc(Nc2n[nH]c(NC3CCNCC3)n2)c1` [Compound 29, N*3*-(3,5-Dichloro-phenyl)-N*5*-piperidin-4-yl-1H-[1,2,4]triazole-3,5-diamine; compound with trifluoro-acetic acid], the EC50 in assay [1] and in assay [2] was 10 µM throughout.

Regarding `Clc1cc(Cl)cc(Nc2n[nH]c(NCc3ccco3)n2)c1` [Compound 2, N3-(3,5-dichlorophenyl)-N5-(furan-2-ylmethyl)-1H-1,2,4-triazole-3,5-diamine], the EC50 came to 2.58 µM in assay [1] and 11.9 µM in assay [2].

Take `N#Cc1ccc(CNc2nc(Nc3cc(Cl)cc(Cl)c3)n[nH]2)cc1` [Compound 16, 4-((3-(3,5-dichlorophenylamino)-1H-1,2,4-triazol-5-ylamino)methyl)benzonitrile]: the EC50 in assay [1] came to 3.34 µM; in assay [2] it was 10 µM.

For `CC(C)(C)OC(=O)c1ccc(CNc2nc(Nc3cc(Cl)c(C#N)c(Cl)c3)n[nH]2)cc1` [Compound 23, tert-butyl 4-((3-(3,5-dichloro-4-cyanophenylamino)-1H-1,2,4-triazol-5-ylamino)methyl)benzoate], the EC50 in assay [1] was 0.029 µM; in assay [2] it was 10 µM.

`CC(=O)N1CCC(Nc2nc(Nc3cc(Cl)cc(Cl)c3)n[nH]2)CC1` [Compound 30, 1-{4-[5-(3,5-Dichloro-phenylamino)-2H-[1,2,4]triazol-3-ylamino]-piperidin-1-yl}-ethanone]: the EC50 in assay [1] worked out at 95.8 µM; in assay [2] it was 49.6 µM.
